# Source: patent publication US20120021905A1, “Pesticidal Mixtures” (priority 2009, published 2012)
# Where two headings read alike, the source gives them in different places.
# Experiments:
# Conditions in all cases: 7 days after inoculation, 405 nm
# Pyricularia oryzae = type: cell-based
# Botrytis cinerea = experiment: Microtest: activity against the grey mold Botrytis cinerea in the microtiterplate test (Botrci); type: cell-based
# Septoria tritici = system: Septoria tritici
compound,measurement,setting,value
N#Cc1nn(-c2c(Cl)cc(C(F)(F)F)cc2Cl)c(N)c1[S+]([O-])C(F)(F)F (stereo not drawn) [fipronil],Observed efficacy,Pyricularia oryzae; 0.063 ppm,0
same,Observed efficacy,Botrytis cinerea; 0.016 ppm,0
CN/C(=N\[N+](=O)[O-])NCc1cnc(Cl)s1 [clothianidin],Observed efficacy,Botrytis cinerea; 16 ppm,0
COC(=O)N(OC)c1ccccc1COc1ccn(-c2ccc(Cl)cc2)n1 [Pyraclostrobin],Observed efficacy,Pyricularia oryzae; 0.001 ppm,21
same,Observed efficacy,Septoria tritici; 0.004 ppm,49
C/C(=N\C#N)N(C)Cc1ccc(Cl)nc1 [acetamipyrid],Observed efficacy,Pyricularia oryzae; 63 ppm,0
"COCC(=O)N(c1c(C)cccc1C)C(C)C(=O)OC (stereo not drawn) [metalaxyl, Metalaxyl]",Observed efficacy,Pyricularia oryzae; 4 ppm,0
CN1COCN(Cc2cnc(Cl)s2)/C1=N\[N+](=O)[O-] [thiamethoxam],Observed efficacy,Pyricularia oryzae; 1 ppm,41
same,Observed efficacy,Botrytis cinerea; 16 ppm,0
same,Observed efficacy,Septoria tritici; 1 ppm,62
"O=[N+]([O-])NC1=NCCN1Cc1ccc(Cl)nc1 [Imidacloprid, imidacloprid]",Observed efficacy,Pyricularia oryzae; 63 ppm,0
same,Observed efficacy,Septoria tritici; 4 ppm,2
